Test results published in the supplement of paper PMC10307832.

How the values were obtained:
Assay in all cases: relative viability (nuclei count vs DMSO), 5 days (fraction); higher = more cells survive
[1] = compound: CC(=O)c1c(C)c2cnc(Nc3ccc(N4CCNCC4)cn3)nc2n(C2CCCC2)c1=O [Palbociclib] + CS(=O)(=O)CCNCc1ccc(-c2ccc3ncnc(Nc4ccc(OCc5cccc(F)c5)c(Cl)c4)c3c2)o1 [Lapatinib] (partner 2 µM)
Summary of the method: (§1)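 Lung cancer cell lines were seeded in 1536-well plates and dosed by pin tool the next day, with either a single drug or a fixed anchor-drug dose combined with five library-drug doses (not always all listed) spaced in √10 steps. Five days later, one step fixed the cells and stained their nuclei (final 0.05% Triton X-100, 1% formaldehyde, 1 ug/ml Hoechst), and nuclei were counted on 4× images. Relative viability is the nuclei count in treated wells divided by the count in vehicle wells, and each value is the median of duplicate plates.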

[2] = compound: CC(=O)c1c(C)c2cnc(Nc3ccc(N4CCNCC4)cn3)nc2n(C2CCCC2)c1=O [Palbociclib] + CS(=O)(=O)N1CCN(Cc2cc3nc(-c4cccc5[nH]ncc45)nc(N4CCOCC4)c3s2)CC1 [Pictilisib] (partner 1 µM)
Summary of the method: as §1

[3] = compound: CC(=O)c1c(C)c2cnc(Nc3ccc(N4CCNCC4)cn3)nc2n(C2CCCC2)c1=O [Palbociclib] + Nc1ncn([C@H]2C[C@H](O)[C@@H](CO)O2)c(=O)n1 [Decitabine] (partner 2 µM)
Summary of the method: as §1

[4] = compound: CC(=O)c1c(C)c2cnc(Nc3ccc(N4CCNCC4)cn3)nc2n(C2CCCC2)c1=O [Palbociclib] + O=C(CCCCCCC(=O)Nc1ccccc1)NO [Vorinostat] (partner 1 µM)
Summary of the method: as §1

Cell Line	relative viability ([1]; first compound 0.01 µM)	relative viability ([1]; first compound 0.03162 µM)	relative viability ([1]; first compound 0.1 µM)	relative viability ([1]; first compound 0.3162 µM)	relative viability ([1]; first compound 1 µM)	relative viability ([2]; first compound 0.01 µM)	relative viability ([2]; first compound 0.03162 µM)	relative viability ([2]; first compound 0.1 µM)	relative viability ([2]; first compound 0.3162 µM)	relative viability ([2]; first compound 1 µM)	relative viability ([3]; first compound 0.01 µM)	relative viability ([3]; first compound 0.03162 µM)	relative viability ([3]; first compound 0.1 µM)	relative viability ([3]; first compound 0.3162 µM)	relative viability ([3]; first compound 1 µM)	relative viability ([4]; first compound 0.01 µM)	relative viability ([4]; first compound 0.03162 µM)	relative viability ([4]; first compound 0.1 µM)	relative viability ([4]; first compound 0.3162 µM)	relative viability ([4]; first compound 1 µM)
201T	1.06	0.844	0.928	0.94	0.692	0.68	0.61	0.622	0.525	0.464	0.827	0.836	0.836	0.834	0.665	1.02	0.567	0.837	0.752	0.532
A549	0.868	0.784	0.615	0.474	0.364	0.472	0.318	0.293	0.283	0.203	0.269	–	0.245	0.274	0.302	–	–	–	–	–
A-427	0.965	0.735	1.03	0.895	0.648	0.703	0.648	0.592	0.447	0.347	0.6	0.581	0.489	0.539	0.519	0.855	0.789	0.711	0.652	0.527
ABC-1	1.01	1.3	1.26	1.07	1.25	0.756	0.758	0.532	0.516	0.423	0.948	1.03	1.23	0.978	0.873	1.18	1.03	0.552	1.03	0.453
BEN	0.754	0.582	0.518	0.558	0.342	0.612	0.425	0.402	0.411	0.3	0.692	0.521	0.596	0.68	0.422	0.568	0.542	0.509	0.58	0.517
CAL-12T	0.759	–	–	0.367	0.334	0.471	–	–	0.263	0.281	–	–	–	–	–	0.781	0.747	0.595	0.581	0.505
COR-L23	1.02	0.864	0.777	0.667	0.418	0.772	0.655	0.503	0.463	0.328	0.414	0.369	0.322	0.363	0.33	0.461	0.346	0.328	0.244	0.223
COR-L 105	0.352	0.281	0.312	0.339	0.354	0.384	0.337	0.261	0.319	0.367	0.777	0.629	0.554	0.604	0.452	0.9	0.887	0.612	0.611	0.482
Calu-6	1.07	0.897	0.855	0.709	0.53	0.908	0.779	0.698	0.508	0.371	–	–	–	–	–	–	–	–	–	–
ChaGo-K-1	–	–	–	–	–	0.836	0.51	0.753	0.955	1.12	0.517	–	0.554	0.522	0.518	0.726	–	0.696	0.721	0.746
EBC-1	0.221	0.215	0.178	0.191	0.192	0.366	0.241	0.202	0.178	0.183	–	–	–	–	–	–	–	–	–	–
EKVX	0.184	0.193	0.193	0.178	0.12	0.478	0.363	0.223	0.281	0.249	0.383	–	0.281	0.307	0.293	0.702	0.509	0.625	0.549	0.483
EMC-BAC-2	0.908	0.515	0.793	0.689	0.597	0.553	0.445	0.442	0.414	0.345	1.02	0.818	0.869	0.783	0.604	0.461	0.39	0.379	0.376	0.308
EPLC-272H	1.14	–	0.71	0.603	0.718	0.377	–	0.272	0.266	0.262	0.4	–	0.322	0.309	0.324	0.535	0.647	0.46	0.401	0.245
H3255	0.263	0.246	0.2	0.231	0.211	0.517	0.376	0.394	0.434	0.261	0.733	0.514	0.522	0.525	0.384	0.907	0.688	0.687	0.68	0.549
HARA	0.715	0.473	0.397	0.363	0.225	0.406	0.347	0.225	0.202	0.169	0.699	0.474	0.418	0.319	0.449	0.446	–	0.384	0.608	0.511
HCC-15	0.934	–	0.75	0.796	0.642	0.71	–	0.617	0.591	0.603	0.662	–	0.535	0.523	0.498	0.871	–	0.768	0.684	0.581
HCC-44	0.886	0.939	0.978	0.979	1.02	0.658	0.538	0.544	0.642	0.521	0.944	0.866	0.948	0.873	1	1.09	1.08	1.15	1.03	1.13
HCC-78	0.914	0.313	0.513	0.685	0.198	0.206	0.202	0.19	0.251	0.154	0.651	0.629	0.773	0.694	0.429	0.502	0.38	0.415	0.418	0.299
HCC-366	1.06	–	0.953	0.91	0.608	0.137	–	0.168	0.14	0.0548	0.338	–	0.33	0.334	0.342	0.388	–	0.289	0.213	0.135

Cell Line	relative viability ([1]; first compound 0.01 µM)	relative viability ([1]; first compound 0.03162 µM)	relative viability ([1]; first compound 0.1 µM)	relative viability ([1]; first compound 0.3162 µM)	relative viability ([1]; first compound 1 µM)	relative viability ([2]; first compound 0.01 µM)	relative viability ([2]; first compound 0.03162 µM)	relative viability ([2]; first compound 0.1 µM)	relative viability ([2]; first compound 0.3162 µM)	relative viability ([2]; first compound 1 µM)	relative viability ([3]; first compound 0.01 µM)	relative viability ([3]; first compound 0.03162 µM)	relative viability ([3]; first compound 0.1 µM)	relative viability ([3]; first compound 0.3162 µM)	relative viability ([3]; first compound 1 µM)	relative viability ([4]; first compound 0.01 µM)	relative viability ([4]; first compound 0.03162 µM)	relative viability ([4]; first compound 0.1 µM)	relative viability ([4]; first compound 0.3162 µM)	relative viability ([4]; first compound 1 µM)
HCC-827	0.217	0.19	0.161	0.202	0.182	0.859	1.02	0.986	0.951	0.746	0.369	0.294	0.289	0.314	0.265	0.863	0.65	0.787	0.636	0.598
HOP-62	0.77	–	0.871	0.825	0.79	0.775	–	0.516	0.551	0.358	0.179	–	0.237	0.207	0.257	0.499	–	0.423	0.482	0.395
LC-2-ad	0.947	–	0.736	0.705	0.491	0.45	–	0.346	0.305	0.223	0.82	0.781	0.758	0.691	0.756	0.712	0.351	0.561	0.561	0.475
LCLC-97TM1	0.891	–	0.894	0.697	0.304	0.199	–	0.122	0.157	0.101	0.23	–	0.231	0.239	0.198	0.698	–	0.423	0.363	0.249
LCLC-103H	–	–	–	–	–	0.564	0.536	0.543	0.591	0.436	0.675	0.76	0.674	0.679	0.627	0.743	0.512	0.62	0.668	0.445
LK-2	1.09	–	0.642	1.23	0.842	0.574	–	0.365	0.529	0.501	0.299	0.213	0.333	0.324	0.283	0.383	0.217	0.281	0.248	0.324
LOU-NH91	0.8	0.596	0.581	0.569	0.557	0.547	0.479	0.484	0.465	0.446	0.817	0.732	0.693	0.631	0.61	1.02	0.623	0.695	0.675	0.673
LU99A	0.936	0.539	0.922	0.853	0.577	0.328	0.287	0.239	0.236	0.225	0.926	–	0.863	0.813	0.684	0.517	–	0.435	0.587	0.399
LXF-289	0.852	0.888	0.838	0.747	0.7	0.752	0.807	0.642	0.69	0.474	0.367	0.405	0.411	0.363	0.422	0.77	0.268	0.66	0.782	0.672
NCI-H23	1	–	1.05	0.804	0.589	0.575	–	0.362	0.36	0.205	0.28	0.341	0.283	0.362	0.33	0.617	0.531	0.406	0.509	0.411
NCI-H322M	0.637	0.563	0.513	0.482	0.387	0.474	0.495	0.459	0.393	0.34	0.691	0.654	0.674	0.654	0.521	0.837	0.784	0.602	0.55	0.454
NCI-H441	–	–	–	–	–	0.559	0.317	0.406	0.304	0.191	0.22	0.244	0.241	0.241	0.236	0.817	0.708	0.589	0.569	0.405
NCI-H522	–	–	–	–	–	–	–	–	–	–	0.749	0.646	0.635	0.736	0.709	0.912	0.536	0.906	1.03	0.802
NCI-H1299	0.952	0.877	0.86	0.809	0.642	0.762	0.486	0.541	0.347	0.259	–	–	–	–	–	–	–	–	–	–
NCI-H1563	0.952	0.852	0.955	0.844	0.759	0.668	0.614	0.555	0.618	0.613	–	–	–	–	–	–	–	–	–	–
NCI-H1792	0.872	0.728	0.882	0.752	0.543	0.298	0.255	0.222	0.229	0.15	0.567	0.432	0.597	0.469	0.389	–	–	–	–	–
NCI-H2228	1.26	0.909	0.923	0.95	0.959	0.298	0.351	0.289	0.358	0.482	–	–	–	–	–	0.566	0.673	0.649	0.717	0.398
NCI-H2342	–	–	–	–	–	–	–	–	–	–	0.744	0.712	0.602	0.713	0.582	0.713	0.63	0.895	0.638	0.585
SW 900	–	–	–	–	–	–	–	–	–	–	0.393	–	0.475	0.478	0.484	0.524	–	0.385	0.415	0.389
